This is an account of results in patent US8598168B2 (MethylGene Inc., priority 2006, dated 2013).

In data set [1] the test system is human colon cancer HCT116 cells. The experiment in a line: MTT Assay. The format is cell-based. To be noted: HCT-116, 72 hours, Table 21. Here is the method:
Compounds at various concentrations were added to human colon cancer HCT116 cells plated in 96-well plates. Cells were incubated for 72 hours at 37° C. in 5% CO2 incubator. MTT (3-[4,5-dimethylthiazol-2-yl]-2,5 diphenyl tetrazolium bromide, Sigma) was added at a final concentration of 0.5 mg/ml and incubated with the cells for 4 hours before an equal volume of solubilization buffer (50% N,N-dimethylformamide, 20% SDS, pH 4.7) was added onto cultured cells. After overnight incubation, solubilized dye was quantified by colorimetric reading at […] using a reference at 630 nM. OD values were converted to cell numbers according to a standard growth curve of the relevant cell line. The concentration which reduces cell numbers to 50% of those of DMSO-treated cells is determined as MTT IC50.

Data set [2] is described as follows: Log D (comparison with previously disclosed compounds). The format is physicochemical. To be noted: pH 7.4.
The target of the next data set is HDAC-1 (Homo sapiens, UniProt Q13547). The experiment in a line: Inhibition of Histone Deacetylase Enzymatic (HDAC-1) Activity. Type of data set: biochemical. The following applies: Table 21. The protocol: The following protocol was used to assay the compounds of the invention.
The mixture was pre-incubated for 5 minutes at room temperature. The reaction was started by bringing the temperature to 37° C. and adding 15 μl substrate. Total reaction volume was 50 μl.

HDAC-1, sequence (Q13547 whole entry): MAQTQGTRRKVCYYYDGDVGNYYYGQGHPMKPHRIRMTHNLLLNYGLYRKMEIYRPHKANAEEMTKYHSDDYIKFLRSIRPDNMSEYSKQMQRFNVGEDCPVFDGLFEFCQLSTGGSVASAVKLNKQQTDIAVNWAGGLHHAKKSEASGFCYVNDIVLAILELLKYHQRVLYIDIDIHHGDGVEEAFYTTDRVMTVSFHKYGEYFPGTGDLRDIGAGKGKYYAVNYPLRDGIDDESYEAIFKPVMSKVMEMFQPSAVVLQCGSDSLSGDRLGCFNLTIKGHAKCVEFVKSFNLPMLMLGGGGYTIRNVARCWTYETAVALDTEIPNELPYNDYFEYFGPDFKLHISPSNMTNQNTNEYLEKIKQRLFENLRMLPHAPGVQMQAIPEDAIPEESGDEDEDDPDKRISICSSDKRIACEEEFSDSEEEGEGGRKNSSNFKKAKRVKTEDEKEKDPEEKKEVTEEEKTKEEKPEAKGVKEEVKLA

Broadly, the IC50 is the midpoint of a concentration-inhibition curve. In general, logD refers to the decadic logarithm of the distribution of all forms, ionised or not, between an organic phase and buffer at a given pH. The low end stands for lower lipophilicity, the high end for higher lipophilicity. As to `CN(C)CCOC(=O)NCc1ccc(C(=O)Nc2cc(-c3cccs3)ccc2N)cc1` [compound 221, 2-(Dimethylamino)ethyl 4-(2-amino-5-(thiophen-2-yl)phenylcarbamoyl)benzylcarbamate], the concentration for half-maximal inhibition (IC50) (in data set [1]; against HDAC-1) was under 1000 nM each time. The same compound yielded a log distribution coefficient (logD) in data set [2] of 1.85.
In the case of `CC(=O)N[C@@H]1CCN(Cc2ccc(C(=O)Nc3cc(-c4cccs4)ccc3N)cc2)C1` [compound 84, (R)-4-((3-acetamido-pyrrolidin-1-yl)methyl)-N-(2-amino-5-(thiophen-2-yl)phenyl)-benzamide], the IC50 (in data set [1]; against HDAC-1) was under 1000 nM throughout. The compound further had a logD in data set [2] of 2.15.
Consider `CC(C)N1CCN(Cc2ccc(C(=O)Nc3cc(-c4cccs4)ccc3N)cc2)CC1` [compound 15, N-(2-amino-5-(thiophen-2-yl)phenyl)-4-((4-isopropylpiperazin-1-yl)methyl)benzamide], for which the IC50 (in data set [1]; at HDAC-1) was under 1000 nM each time. In data set [2], this compound yielded a logD of 2.15.
For the compound `Nc1ccc(-c2cccs2)cc1NC(=O)c1ccc(CN2CCN(C3CCCC3)CC2)cc1` [compound 16, N-(2-amino-5-(thiophen-2-yl)phenyl)-4-((4-cyclopentylpiperazin-1-yl)methyl)benzamide], the IC50 (in data set [1]; against HDAC-1) was under 1000 nM in each case. For the same compound, the logD in data set [2] turned out to be 3.3.
On to `Nc1ccc(-c2cccs2)cc1NC(=O)c1ccc(CN2CCCCC2)cc1` [compound 12, N-(2-amino-5-(thiophen-2-yl)phenyl)-4-(piperidin-1-ylmethyl)benzamide], for which the IC50 in data set [1] is 1000 to 5000 nM; at HDAC-1, under 1000 nM. Further, in data set [2], the logD amounted to 3.86.
For the compound `CN(C)[C@H]1CCN(Cc2ccc(C(=O)Nc3cc(-c4cccs4)ccc3N)cc2)C1` [compound 81, (S)-N-(2-amino-5-(thiophen-2-yl)phenyl)-4-((3-(dimethylamino)-pyrrolidin-1-yl)methyl)-benzamide], the IC50 (in data set [1]; against HDAC-1) was under 1000 nM each time. The pH-dependent lipophilicity (logD) in data set [2] is 2.11.
On to `CC(=O)N[C@H]1CCN(Cc2ccc(C(=O)Nc3cc(-c4cccs4)ccc3N)cc2)C1` [compound 87, (S)-4-((3-acetamido-pyrrolidin-1-yl)methyl)-N-(2-amino-5-(thiophen-2-yl)phenyl)-benzamide], for which the concentration for half-maximal inhibition (IC50) (in data set [1]; against HDAC-1) was under 1000 nM each time. In data set [2], the pH-dependent lipophilicity (logD) worked out at 2.15.
As to `Nc1ccc(-c2cccs2)cc1NC(=O)c1ccc(CN2CCCC2)cc1` [compound 90, N-(2-amino-5-(thiophen-2-yl)phenyl)-4-(pyrrolidin-1-ylmethyl)-benzamide], the IC50 (in data set [1]; at HDAC-1) was under 1000 nM each time. This compound also had a log distribution coefficient (logD) in data set [2] of 3.15.
As to `CN(C)CCN(C)C(=O)NCc1ccc(C(=O)Nc2cc(-c3cccs3)ccc2N)cc1` [compound 222, N-(2-amino-5-(thiophen-2-yl)phenyl)-4-((3-(2-(dimethylamino)ethyl)-3-methylureido)methyl)benzamide], the IC50 (in data set [1]; against HDAC-1) was under 1000 nM in each case. The logD in data set [2] worked out at 1.05.
With `Nc1ccc(-c2ccccc2)cc1NC(=O)C1CCN(S(=O)(=O)c2ccc([N+](=O)[O-])cc2)CC1` [compound 320, N-(4-Aminobiphenyl-3-yl)-1-(4-nitrophenylsulfonyl)piperidine-4-carboxamide], the logD in data set [2] was 3.21. The IC50 against HDAC-1 was under 1000 nM.
`Nc1ccc(-c2cccs2)cc1NC(=O)N1CCN(Cc2ccc3c(c2)OCO3)CC1` [compound 316, N-(2-Amino-5-(thiophen-2-yl)phenyl)-4-(benzo[d][1,3]dioxol-5-ylmethyl)piperazine-1-carboxamide]: the logD in data set [2] was determined as 2.32. At HDAC-1, this compound returned a half-inhibitory concentration (IC50) of under 1000 nM.
On to `CCN(CC)CCSc1ccc(C(=O)Nc2cc(-c3cccs3)ccc2N)cc1` [compound 107, N-(2-amino-5-(thiophen-2-yl)phenyl)-4-(2-(diethyl-amino)-ethylthio)-benzamide], for which, in data set [2], the log distribution coefficient (logD) was determined as 2.58. Besides, on HDAC-1, the IC50 was under 1000 nM.
